Data published in patent publication US12296053B2, “Nanomaterials comprising triols” (Beam Therapeutics Inc., priority 2022, dated 2025).

Columns and labels:
[1] = Encapsulation efficiency of LNP preparations (Ribogreen assay; Qubit, unlysed and lysed LNPs); format: physicochemical; conditions: LNP preparation with the ionizable lipid, ABE mRNA:sgRNA 1:1, except 7-1, 7-2, 7-6, 7-10 (unlysed and lysed LNPs, Qubit)
Experimental: (§1) Lipid nanoparticle components were dissolved in 100% ethanol at specified lipid component molar ratios. mRNA encoding an adenine base editor and a chemically-modified sgRNA was dissolved at a mass ratio of 1:1 in 50 mM citrate, pH 4.0, resulting in a concentration of NA cargo of approximately 0.1 mg/mL.
(§2) LNP preparations were formulated with molar ratios of 47.5% Ionizable Lipid: 40% Cholesterol: 2.5% PEG2000-DMG: 10% DSPC total lipid to NA molar ratio of 6 to 12.
(§3) LNP preparations were formed by microfluidic mixing of the lipid and NA solutions using Precision Nanosystems NanoAssemblr Ignite series Instruments, according to the manufacturer's protocol.
With the exception of LNPs comprising ionizable lipids 7-1, 7-2, 7-6, and 7-10, RNA concentration and encapsulation efficiency were determined by Ribogreen assay (BioTek Synergy LX plate reader). For LNPs comprising ionizable lipids 7-1, 7-2, 7-6, and 7-10, RNA concentration was determined by Qubit microRNA kit (for siRNA) or HS RNA kit (for mRNA) per manufacturer's instructions, and encapsulation efficiency was determined by measuring unlysed and lysed LNPs.

[2] = LNP hydrodynamic diameter and polydispersity index by dynamic light scattering (DLS); format: physicochemical; conditions: for Diameter (nm): hydrodynamic diameter of the LNP preparation with the ionizable lipid; for PDI: polydispersity index of the LNP preparation with the ionizable lipid
Experimental: (§4) A 3:1 ratio of aqueous to organic solvent was maintained during mixing using differential flow rates. After mixing, LNP preparations were collected and diluted in TBS (approximately 7:1 v/v), and further buffer exchange was conducted using dialysis in TBS at 4° C. for 8 to 24 hours against a 20 kDa filter. After this initial dialysis, each individual LNP preparation was characterized via dynamic light scattering (DLS) to measure size and polydispersity. pKa of a subpopulation of LNP preparations was measured via TNS assay.
DLS-LNP preparation hydrodynamic diameter and polydispersity index (PDI) was measured using high throughput dynamic light scattering (DLS) (DynaPro plate reader II, Wyatt). LNP preparations were diluted 1×PBS to an appropriate concentration and analyzed.

ALAS1 target site = assay: Base editing in liver by LNP-delivered ABE mRNA and sgRNA, targeted deep sequencing; format: in vivo; conditions: LNP with the ionizable lipid, ABE mRNA + sgRNA targeting ALAS1 1:1; tail vein injection, Balb/c mice; 0.05 mg/kg; tissues four to six days post-dose
Experimental: as §1, §2, §3, §4
Male Balb/C mice aged approximately 8-12 weeks were used in the experiments described herein. […]
Age-matched mice were also used to administer vehicle (1×TBS) via tail vein injection as a control. Four to six days post-dose, tissues including liver, spleen, and bone marrow were collected. Base editing was determined by performing targeted deep sequencing analysis at the ALAS1 target site using extracted genomic DNA. Genomic DNA was isolated and fragmented and adapter-ligated using the Nextera DNA Flex Library Prep Kit (Illumina) using the 96-well plate Nextera indexing primers (Illumina), according to the manufacturer's instructions. Library size and concentration was confirmed by Fragment Analyzer (Agilent) and analyzed for whole genome sequencing using an Illumina HiSeq.

Row | Compound | Encapsulation Efficiency (%) [1] [%] | Diameter (nm) [2] [nm] | PDI [2] | % Editing in Liver (0.05 mpk) (ALAS1 target site) [%]
1 | CC/C=C\CCCCOC(CCC(=O)OCC(COC(=O)CCCCCC(=O)OCCC(CCCC)CCCC)COC(=O)CCC(CCCCCC)OC(=O)NCCN1CCCC1)OCCCC/C=C\CC (stereo not shown) [Compound 7-12, 1-(3-((4,4-bis(((Z)-oct-5-en-1-yl)oxy)butanoyl)oxy)-2-(((4-(((2-(pyrrolidin-1-yl)ethyl)carbamoyl)oxy)decanoyl)oxy)methyl)propyl) 7-(3-butylheptyl) heptanedioate] | 96.4 | 69.26 | 0.11 | 1.7
2 | CC/C=C\CCCCOC(CCC(=O)OCC(COC(=O)CCCCCC(=O)OCCC(CCCCC)CCCCC)COC(=O)CCC(CCCCCC)OC(=O)NCCN1CCCC1)OCCCC/C=C\CC (stereo not shown) [Compound 7-13, 1-(3-((4,4-bis(((Z)-oct-5-en-1-yl)oxy)butanoyl)oxy)-2-(((4-(((2-(pyrrolidin-1-yl)ethyl)carbamoyl)oxy)decanoyl)oxy)methyl)propyl) 7-(3-pentyloctyl) heptanedioate] | 97.3 | 52.45 | 0.04 | 2.2
3 | CC/C=C\CCCCOC(CCC(=O)OCC(COC(=O)CCCCCC(=O)OCCC(CCCCCC)CCCCCC)COC(=O)CCC(CCCCCC)OC(=O)NCCN1CCCC1)OCCCC/C=C\CC (stereo not shown) [Compound 7-14, 1-(3-((4,4-bis(((Z)-oct-5-en-1-yl)oxy)butanoyl)oxy)-2-(((4-(((2-(pyrrolidin-1-yl)ethyl)carbamoyl)oxy)decanoyl)oxy)methyl)propyl) 7-(3-hexylnonyl) heptanedioate] | 97.6 | 59.40 | 0.09 | 0.1
4 | CCCCCCCCOC(CCC(=O)OCC(COC(=O)CCCCCC(=O)OCCC(CCCCC)CCCCC)COC(=O)CCC(CCCCCC)OC(=O)NCCN1CCCC1)OCCCCCCCC (stereo not shown) [Compound 7-15, 1-(3-((4,4-bis(octyloxy)butanoyl)oxy)-2-(((4-(((2-(pyrrolidin-1-yl)ethyl)carbamoyl)oxy)decanoyl)oxy)methyl)propyl) 7-(3-pentyloctyl) heptanedioate] | 97.9 | 58.45 | 0.08 | 6.8
5 | CC/C=C\CCCCOC(CCC(=O)OCC(COC(=O)CCCCC(=O)OCCC(CCCCCC)CCCCCC)COC(=O)CCC(CCCCCC)OC(=O)NCCN1CCCC1)OCCCC/C=C\CC (stereo not shown) [Compound 7-16, 3-((4,4-bis(((Z)-oct-5-en-1-yl)oxy)butanoyl)oxy)-2-(((4-(((2-(pyrrolidin-1-yl)ethyl)carbamoyl)oxy)decanoyl)oxy)methyl)propyl (3-hexylnonyl) adipate] | 98.0 | 52.55 | 0.05 | 0.7
6 | CCCCCCCCOC(CCC(=O)OCC(COC(=O)CCCCC(=O)OCCC(CCCCCC)CCCCCC)COC(=O)CCC(CCCCCC)OC(=O)NCCN1CCCC1)OCCCCCCCC (stereo not shown) [Compound 7-17, 3-((4,4-bis(octyloxy)butanoyl)oxy)-2-(((4-(((2-(pyrrolidin-1-yl)ethyl)carbamoyl)oxy)decanoyl)oxy)methyl)propyl (3-hexylnonyl) adipate] | 98.5 | 57.11 | 0.09 | 1.0
7 | CC/C=C\CCCCOC(CCC(=O)OCC(COC(=O)CCCCCCC(=O)OCCC(CCCC)CCCC)COC(=O)CCC(CCCCCC)OC(=O)NCCN1CCCC1)OCCCC/C=C\CC (stereo not shown) [Compound 7-18, 1-(3-((4,4-bis(((Z)-oct-5-en-1-yl)oxy)butanoyl)oxy)-2-(((4-(((2-(pyrrolidin-1-yl)ethyl)carbamoyl)oxy)decanoyl)oxy)methyl)propyl) 8-(3-butylheptyl) octanedioate] | 96.1 | 55.60 | 0.08 | 3.3
8 | CC/C=C\CCCCOC(CCC(=O)OCC(COC(=O)CCCCCCC(=O)OCCC(CCCCC)CCCCC)COC(=O)CCC(CCCCCC)OC(=O)NCCN1CCCC1)OCCCC/C=C\CC (stereo not shown) [Compound 7-19, 1-(3-((4,4-bis(((Z)-oct-5-en-1-yl)oxy)butanoyl)oxy)-2-(((4-(((2-(pyrrolidin-1-yl)ethyl)carbamoyl)oxy)decanoyl)oxy)methyl)propyl) 8-(3-pentyloctyl) octanedioate] | 97.2 | 54.15 | 0.12 | 1.7
9 | CC/C=C\CCCCOC(CCC(=O)OCC(COC(=O)CCCCCCOC(=O)C(CCCC)CCCCCC)COC(=O)CCC(CCCC)OC(=O)NCCN1CCCC1)OCCCC/C=C\CC (stereo not shown) [Compound 7-22, 3-((4,4-bis(((Z)-oct-5-en-1-yl)oxy)butanoyl)oxy)-2-(((7-((2-butyloctanoyl)oxy)heptanoyl)oxy)methyl)propyl 4-(((2-(pyrrolidin-1-yl)ethyl)carbamoyl)oxy)octanoate] | 97.3 | 65.85 | 0.06 | 5.6
10 | CC/C=C\CCCCOC(CCC(=O)OCC(COC(=O)CCCCCCOC(=O)C(CCCC)CCCCCC)COC(=O)CCC(CCCCC)OC(=O)NCCN1CCCC1)OCCCC/C=C\CC (stereo not shown) [Compound 7-23, 3-((4,4-bis(((Z)-oct-5-en-1-yl)oxy)butanoyl)oxy)-2-(((7-((2-butyloctanoyl)oxy)heptanoyl)oxy)methyl)propyl 4-(((2-(pyrrolidin-1-yl)ethyl)carbamoyl)oxy)nonanoate] | 98.7 | 57.90 | 0.12 | 1.0
11 | CC/C=C\CCCCOC(CCC(=O)OCC(COC(=O)CCCCCC(=O)OCCC(CCCCC)CCCCC)COC(=O)CCC(CCC)OC(=O)NCCN1CCCC1)OCCCC/C=C\CC (stereo not shown) [Compound 7-25, 1-(3-((4,4-bis(((Z)-oct-5-en-1-yl)oxy)butanoyl)oxy)-2-(((4-(((2-(pyrrolidin-1-yl)ethyl)carbamoyl)oxy)heptanoyl)oxy)methyl)propyl) 7-(3-pentyloctyl) heptanedioate] | 97.8 | 78.75 | 0.11 | 0.9
12 | CC/C=C\CCCCOC(CCC(=O)OCC(COC(=O)CCCCCC(=O)OCCC(CCCCC)CCCCC)COC(=O)CCC(CCCCC)OC(=O)NCCN1CCCC1)OCCCC/C=C\CC (stereo not shown) [Compound 7-27, 1-(3-((4,4-bis(((Z)-oct-5-en-1-yl)oxy)butanoyl)oxy)-2-(((4-(((2-(pyrrolidin-1-yl)ethyl)carbamoyl)oxy)nonanoyl)oxy)methyl)propyl) 7-(3-pentyloctyl) heptanedioate] | 96.9 | 61.25 | 0.06 | 5.3
13 | CC/C=C\CCCCOC(CCC(=O)OCC(COC(=O)CCCCCC(=O)OCCC(CCCCC)CCCCC)COC(=O)CCC(C)OC(=O)NCCN1CCCC1)OCCCC/C=C\CC (stereo not shown) [Compound 7-30, 1-(3-((4,4-bis(((Z)-oct-5-en-1-yl)oxy)butanoyl)oxy)-2-(((4-(((2-(pyrrolidin-1-yl)ethyl)carbamoyl)oxy)pentanoyl)oxy)methyl)propyl) 7-(3-pentyloctyl) heptanedioate] | 98.3 | 71.40 | 0.10 | 0.8
